Measurements taken from publication PMC6736568, “Discovery of Novel Anti-cryptosporidial Activities From Natural Products by in vitro High-Throughput Phenotypic Screening” (Frontiers in Microbiology, 2019).
Where two headings read alike, the source gives them in different places.

Legend:
Cryptosporidium parvum = experiment: qRT-PCR assay of the growth of C. parvum in vitro in HCT-8 host cells (primary and secondary screening, EC50); type: cell-based; details: Cryptosporidium parvum, HCT-8; for inhibition at 10 µM: primary screening at 10 uM, read-out: Inhibition (%); for inhibition at 3.3 µM: secondary screening at 3.3 uM, read-out: % Inhibition (3.3 uM)
[1] = primary screening at 10 uM, treated vs control

Row | Compound | Hs18S ΔCT (HCT-8 host cells (Hs18S); human, 41 h, 10 μM) | Hs18S ΔCT (HCT-8 host cells (Hs18S); [1]) | inhibition at 10 µM (Cryptosporidium parvum) [%] | cytotoxicity at 10 µM (in vitro) [%] | cytotoxicity at 41 h, 10 µM (in vitro; human) [%] | Hs18S ΔCT (HCT-8 host cells (Hs18S)) | inhibition at 3.3 µM (Cryptosporidium parvum) [%] | cytotoxicity at 41 h, 10 µM (in vitro) [%]
1 | CC1(C)[C@@H](O)CC[C@]2(C)[C@H]3C(=O)C=C4[C@H]5C[C@@](C)(C(=O)O)CC[C@]5(C)CC[C@@]4(C)[C@]3(C)CC[C@@H]12 |  | -0.01 | -12.7 | -0.5 |  |  |  | 
2 | CCOc1cccc(C(=O)c2ccc(O)c(O)c2O)c1 | -0.39 |  | -37.2 |  | -31.4 |  |  | 
3 | Cc1cc(O)cc(=O)o1 |  | 0.04 | 15.4 | 3.1 |  |  |  | 
4 | CC(C)=CCC/C(C)=C/COc1ccc2ccc(=O)oc2c1 |  | 0.02 | 3.93 | 1.2 |  |  |  | 
5 | COc1cc(OC)c2c(c1)O[C@H](c1ccc(OC)c(OC)c1)[C@@H](O)C2 |  | -0.47 | 17.5 | -38.4 |  |  |  | 
6 | COc1ccc2c(c1)OCC(Cc1ccc(OC)c(OC)c1)C2=O (centres unmarked) |  | 0.04 | 20.2 | 2.4 |  |  |  | 
7 | CNc1ccccc1C(=O)O |  |  | -14.8 | 13 |  | 0.20 |  | 
8 | COc1ccc2c(c1)OC[C@@H](Cc1ccc(OC)c(OC)c1)[C@H]2O |  | -0.10 | 9.9 | -6.9 |  |  |  | 
9 | CCCCCCCCCCCCCCCC(=O)OCC(O)CO (centres unmarked) [1-MONOPALMITIN] | -0.10 |  | 14.2 |  | -7.1 |  |  | 
10 | O=C(/C=C/c1ccccc1)c1ccc(O[C@@H]2O[C@H](CO)[C@@H](O)[C@H](O)[C@H]2O)cc1O [2',4'-DIHYDROXYCHALCONE 4'-GLUCOSIDE] | 0.03 |  | -19.5 |  | 1.9 |  |  | 
11 | O=C(/C=C/c1ccccc1)c1ccc(O)cc1O [2',4'-DIHYDROXYCHALCONE] | 0.09 |  | 6.05 |  | 6.1 |  |  | 
12 | CCOc1ccc(C(=O)c2ccc(O)c(O)c2O)cc1 [2,3,4-TRIHYDROXY-4'-ETHOXYBENZOPHENONE] | 0.22 |  | -43.7 |  | 14.4 |  |  | 
13 | CCOc1ccc(C(=O)c2ccc(OC)c(O)c2O)cc1 [2,3-DIHYDROXY-4-METHOXY-4'-ETHOXYBENZOPHENONE] | -0.12 |  | 39 |  | -8.6 |  |  | 
14 | COC1=CC(=O)C=C(OC)C1=O [2,6-DIMETHOXYQUINONE] |  | -0.06 | -5.86 | -4.3 |  |  |  | 
15 | COc1c(O)cccc1O [2-METHOXYRESORCINOL] | -0.20 |  | 20.3 |  | -15 |  |  | 
16 | Cc1[nH]c2ccccc2c1CN(C)C [2-METHYL GRAMINE] | -0.11 |  | 0.92 |  | -7.5 |  |  | 
17 | CC(=O)O[C@H]1CC[C@@]2(C)[C@H](CC[C@@H]3[C@@H]2CC[C@]2(C)[C@@H](C4=CC(=O)OC4)[C@@H](OC(C)=O)C[C@]32O)C1 [GITOXIGENIN DIACETATE] |  | 8.90 |  | 99.8 |  |  |  | 
18 | CC(=O)O[C@H]1C[C@H](O[C@H]2[C@@H](O)C[C@H](O[C@H]3[C@@H](O)C[C@H](O[C@H]4CC[C@@]5(C)[C@H](CC[C@@H]6[C@@H]5C[C@@H](O)[C@]5(C)[C@@H](C7=CC(=O)OC7)CC[C@]65O)C4)O[C@@H]3C)O[C@@H]2C)O[C@H](C)[C@H]1O[C@@H]1O[C@H](CO)[C@@H](O)[C@H](O)[C@H]1O [LANATOSIDE C] |  | 8.93 |  | 99.8 |  |  |  | 
19 | C[C@@H]1O[C@@H](O[C@H]2C[C@@H](O)[C@]3(CO)[C@H]4[C@H](O)C[C@]5(C)[C@@H](C6=CC(=O)OC6)CC[C@]5(O)[C@@H]4CC[C@]3(O)C2)[C@H](O)[C@H](O)[C@H]1O [OUABAIN] |  | 11.65 |  |  |  |  |  | 100
20 | CO[C@H]1[C@H](O)[C@H](O[C@H]2CC[C@@]3(C=O)[C@H](CC[C@@H]4[C@@H]3CC[C@]3(C)[C@@H](C5=CC(=O)OC5)CC[C@]43O)C2)O[C@@H](C)[C@@H]1O [PERUVOSIDE] |  | 10.85 |  | 99.9 |  |  |  | 
21 | COc1cc([C@@H]2c3cc4c(cc3[C@H](O)[C@H]3COC(=O)[C@H]23)OCO4)cc(OC)c1OC [PODOFILOX] |  | 5.42 |  |  |  |  |  | 97.7
22 | C[C@@H]1O[C@@H](O[C@@H]2C=C3CC[C@@H]4[C@H](CC[C@]5(C)[C@@H](c6ccc(=O)oc6)CC[C@]45O)[C@@]3(C)CC2)[C@H](O)[C@H](O)[C@H]1O [PROSCILLARIDIN] |  | 13.28 |  | 100 |  |  |  | 
23 | C[C@]12CC[C@H]3[C@@H](CC[C@]4(O)C[C@@H](O)CC[C@]34C=O)[C@@]1(O)CC[C@@H]2C1=CC(=O)OC1 [STROPHANTHIDIN] |  | 11.98 |  |  | 100 |  |  | 
24 | NCCCC(=O)O [gamma-AMINOBUTYRIC ACID] | 0.04 |  |  |  | 2.6 |  |  | 

More lines, main results first:

Row | Hs18S ΔCT (HCT-8 host cells (Hs18S); human, 41 h, 10 μM) | Compound | Hs18S ΔCT (HCT-8 host cells (Hs18S); [1]) | inhibition at 10 µM (Cryptosporidium parvum) [%] | cytotoxicity at 10 µM (in vitro) [%] | cytotoxicity at 41 h, 10 µM (in vitro; human) [%] | Hs18S ΔCT (HCT-8 host cells (Hs18S)) | inhibition at 3.3 µM (Cryptosporidium parvum) [%] | cytotoxicity at 41 h, 10 µM (in vitro) [%]
25 | -0.17 | C=CC(C)(O)CCC=C(C)CCC=C(C)C (mixture of isomers) [NEROLIDOL] |  | -35.5 |  | -12.9 |  |  | 
26 | 0.18 | COc1ccc(-c2coc3cc(O)ccc3c2=O)c(OC)c1 [2'-METHOXYFORMONETIN] |  | 12.9 |  | 11.5 |  |  | 
27 | 0.06 | COc1cc(O)c(C)c(O)c1 [2,6-DIHYDROXY-4-METHOXYTOLUENE] |  | 19 |  | 4.4 |  |  | 
28 | -0.43 | CC(=O)c1ccc[nH]1 [2-ACETYLPYRROLE] |  | 22.6 |  | -34.6 |  |  | 
29 | -0.59 | COC1=CC(=O)C(C(=O)c2ccccc2)=CC1=O [2-BENZOYL-5-METHOXYBENZOQUINONE] |  | 16.2 |  | -50.7 |  |  | 
30 | 0.16 | COc1ccc(C(=O)O)c(O)c1OC [2-HYDROXY-3,4-DIMETHOXYBENZOIC ACID] |  | 7.69 |  | 10.5 |  |  | 
31 | -0.15 | CC1(C)CC2C1CCC1(C)OC1CCC2(C)O (centres unmarked) [2-HYDROXY-5 (6)EPOXY-TETRAHYDROCARYOPHYLLENE] |  | 46.2 |  | -10.9 |  |  | 
32 | -0.15 | COC1(C)CCC2OC2(C)CCC2C1CC2(C)C (centres unmarked) [2-METHOXY-5 (6)EPOXY-TETRAHYDROCARYOPHYLLENE] |  | -24.7 |  | -11.1 |  |  | 
33 | 0.06 | C=C[C@@H](C1=CC(=O)C(OC)=C(OC)C1=O)c1ccccc1 [3,4-DIMETHOXYDALBERGIONE] |  | 11.6 |  | 3.8 |  |  | 
34 | -0.21 | COc1ccc2c(=O)c(OC)c(-c3ccccc3)oc2c1 [3,7-DIMETHOXYFLAVONE] |  | 49.7 |  | -15.4 |  |  | 
35 | 0.11 | CC1(C)CC2C1CCC1(C)OC2(C)CCC1O (centres unmarked) [3,7-EPOXYCARYOPHYLLAN-6-OL] |  | 12.9 |  | 7.2 |  |  | 
36 | 0.27 | CC12CCC3C(CC3(C)C)C(C)(CCC1=O)O2 (centres unmarked) [3,7-EPOXYCARYOPHYLLAN-6-ONE] |  | 13.1 |  | 17 |  |  | 
37 | -0.18 | COC(=O)C[C@H]1C(C)(C)[C@@H](O)[C@@H]2CC3=C4CC(O)O[C@@H](c5ccoc5)[C@]4(C)CCC3[C@@]1(C)C2=O (stereo partly drawn) [3,16-DIDEOXYMEXICANOLIDE-3beta-DIOL] |  | 87.5 |  | -13.4 |  | 52 | 
38 | 0.42 | C=C1C(N)CC2CC1C2(C)C (stereo not drawn) [3-AMINO-beta-PINENE] |  | 19.2 |  | 25.3 |  |  | 
39 | 0.05 | COc1ccc2c(c1)OC[C@@H](Cc1ccc(OC)c(OC)c1)[C@@H]2O [3-DESHYDROXYSAPPANOL TRIMETHYL ETHER] |  | 7.69 |  | 3.2 |  |  | 
40 | -0.21 | O=c1oc2ccccc2cc1O [3-HYDROXYCOUMARIN] |  | -39.6 |  | -15.7 |  |  | 
41 | -0.04 | O=c1c(O)c(-c2ccccc2)oc2ccccc12 [3-HYDROXYFLAVONE] |  | 92.4 |  | -2.7 |  | -28 | 
42 | 6.42 | CC(C)=CCc1c2c(c3occ(-c4ccc(O)c(O)c4)c(=O)c3c1O)C=CC(C)(C)O2 [POMIFERIN] |  |  |  | 98.8 |  |  | 
